The subject of data set [1] is MHV-1. In words: MHV-1 infected A/J mice given GABA-R agonist in drinking water. As to conditions: for body weight loss vs. plain water (FIG. 4A) / death rate vs. plain water (FIG. 4C) / disease (illness) scores vs. plain water (FIG. 4B) / lung coefficient index vs. plain water (FIG. 4D): Example 2, in water: GABA 2 mg/mL, homotaurine 0.25 mg/mL, baclofen 0.25 mg/mL; for mice that died up to day 14 post-infection: control 3/9 survived; for average body weight loss by day 6: control lost 23%. Type of data set: in vivo.

The subject of data set [2] is SARS-CoV-2. In kind it is in vivo, K18-hACE2 mice. The following applies: for mice that died during the 7-day observation period: control 3/5 died.
Data set [3] has as its target SARS-CoV-2 binding to its cellular receptor (UniProt P0DTC2+Q9BYF1). As to conditions: NIH core screening facility data; cited from earlier work.
Data set [4] has as its system SARS-CoV-2. As to conditions: cited from earlier work.
Data set [5] relates to anti-CD3-activated human PBMC. As to conditions: cited from earlier work.
For data set [6] the following is noted: cited from earlier work; for CD4+ and CD8+ Treg responses in vivo / autoreactive Th1 and Th17 cells in vivo: in vivo administration; for disease progression in mouse models of type 1 diabetes, multiple sclerosis, and rheumatoid arthritis / inflammation in a mouse model of type 2 diabetes: in vivo.
The conditions of data set [7]: rodent models of acute lung injury; cited from earlier work.
The conditions of data set [8]: cited from earlier work.
For data set [9] the following is noted: phase 1b oral dosing study; cited from earlier work.
For data set [10] the following is noted: room temperature; cited from earlier work.
The conditions of data set [11]: large long-term phase III clinical trial; cited from earlier work.
[12] abbreviates: GABA 20 mg/ml in water, from 3 days post-infection.
Setting [13] is: GABA 20 mg/ml in water, starting immediately after MHV-1 inoculation.
The mark [14] stands for this setting: 0.2 mg/mL p=0.049, 20 mg/mL p=0.174, log-rank test.

The values that follow come from patent US20230381125A1.

The structures appear in SMILES notation. Like-named read-outs stand apart in the source and are kept apart here.

Take `NCCCC(=O)O` [GABA, gamma-aminobutyric acid]: in data set [1], the “body weight loss vs. plain water (FIG. 4A)” value is listed as “significantly reduced”, the “death rate vs. plain water (FIG. 4C)” value is reported as “significantly reduced” and the “disease (illness) scores vs. plain water (FIG. 4B)” value was “significantly reduced”. In addition, the “body weight loss vs. control (FIG. 1A)” value in [1] (GABA0 and GABA3 vs. control, p<0.0001) was “reduced”. For the same compound, in data set [1] (GABA0 and GABA3 vs. control, p<0.001), the “illness scores vs. control (FIG. 2)” value is given as “reduced”. In addition, the “survival following MHV-1 infection vs. control (FIG. 1B)” value in data set [1] (GABA0 p=0.002, GABA3 p=0.001, log rank test) is recorded as “increased”. For the same compound, the “highest average illness score (scale 0-5)” value in data set [1] (GABA 20 mg/ml in water immediately after inoculation, day 7 post-infection) turned out to be 1.6. Besides, in data set [1] (setting [12]), the “body weight at 14 days post-infection, % of starting weight” value was 90% and the “maximum mean illness score (scale 0-5)” value was determined as 2.5. The “mice that died up to day 14 post-infection” value in [1] (GABA 20 mg/ml in water, from 3 days post-infection, death on day 9) was 1/9. For the same compound, the “average body weight loss by day 6” value in [1] (GABA 20 mg/ml in water, given from three days after infection) worked out at 17%. Besides, the “average body weight loss by day 6” value in [1] (GABA 20 mg/ml in water, given immediately after MHV-1 infection) is 11%. For the same compound, in [1] (setting [13]), the “body weight below starting weight 14 days post-infection” value stood at 7% and the “mice that died up to day 14 post-infection” value is “none”. Besides, in [2] (setting [14]), the “death rates vs. plain water” value was “reduced” and the “survival following SARS-CoV2 infection vs. control (FIG. 5)” value is “increased”. In addition, the “mice that died during the 7-day observation period” value in data set [2] (GABA 0.2 mg/mL in water, p<0.05) is listed as “none”. The “mice that died during the 7-day observation period” value in data set [2] (GABA 20 mg/ml in water, p=0.174) is 1/5. The “viral N1 and N2 transcripts in the lungs (RT-qPCR) vs. control” value in data set [2] (lungs harvested on days 6-7, data not shown) is “tended to be lower”. In addition, in data set [3], the “interference with SARS-CoV-2 interaction with its cellular receptor” value is recorded as “did not interfere”. The “interference with SARS-CoV-2 replication” value in data set [4] (NIH core screening facility data) was “did not interfere”. In addition, the “effect on SARS infection or replication” value in data set [4] (NIH drug screening program) is listed as “no effect”. The “IL-6, CXCL10/IP-10, CCL4, CCL20, and MCP-3 production” value in data set [5] is “inhibits”. Moreover, in [6], the “CD4+ and CD8+ Treg responses in vivo” value is “promoting”; the “autoreactive Th1 and Th17 cells in vivo” value is on record as “inhibits”; the “disease progression in mouse models of type 1 diabetes, multiple sclerosis, and rheumatoid arthritis” value is given as “inhibits disease progression”; the “inflammation in a mouse model of type 2 diabetes” value is listed as “limits inflammation”. In [7], the “inflammation, alveolar fluid clearance and lung functional recovery” value is “reduce inflammation and improve alveolar fluid clearance and lung functional recovery”. For the same compound, in [8] (hundreds of epilepsy patients), the “clinical benefit (ability to reduce seizures)” value is on record as “no clinical benefit”. In addition, the adverse effects entry in data set [8] (long-term studies in epilepsy patients) is recorded as “no adverse effects”. Also, the safety entry in data set [9] is reported as “safe”. Further, in [10], the stability entry is on record as “stable at room temperature”.

For the compound `NCC(CC(=O)O)c1ccc(Cl)cc1` (centres unmarked) [baclofen], in data set [1], the “body weight loss vs. plain water (FIG. 4A)” value is recorded as “did not significantly decrease”, the “death rate vs. plain water (FIG. 4C)” value is listed as “did not significantly decrease”, the “disease (illness) scores vs. plain water (FIG. 4B)” value is given as “slight but significant ability to reduce” and the “lung coefficient index vs. plain water (FIG. 4D)” value was “did not significantly decrease”.

On to `NCCCS(=O)(=O)O` [homotaurine], for which, in data set [1], the “body weight loss vs. plain water (FIG. 4A)” value was “significantly reduced”, the “death rate vs. plain water (FIG. 4C)” value is listed as “significantly reduced”, the “disease (illness) scores vs. plain water (FIG. 4B)” value is listed as “significantly reduced” and the “lung coefficient index vs. plain water (FIG. 4D)” value is “significantly reduced”. Also, in data set [6], the “CD4+ and CD8+ Treg responses in vivo” value was “promoting”; the “autoreactive Th1 and Th17 cells in vivo” value is “inhibits”; the “disease progression in mouse models of type 1 diabetes, multiple sclerosis, and rheumatoid arthritis” value was “inhibits disease progression”; the “inflammation in a mouse model of type 2 diabetes” value is given as “limits inflammation”. Besides, in [11], the “efficacy in Alzheimer's disease” value is listed as “not effective” and the safety entry is given as “excellent safety record”. In data set [10], the stability result is given as “stable at room temperature”.
